These results are taken from US4732970A, “Antitumor amino acid and peptide derivatives of 1,4-bis(aminoalkyl and hydroxy-aminoalkyl)amino)-5,8-dihydroxyanthraquinones” (priority 1986, dated 1988).

In this assay the test system is lymphocytic leukemia P388. The experiment in a line: Lymphocytic Leukemia P388 Test. It is filed as in vivo, BDF1 mice. The settings on record: for Median Survival: BDF1 mice; for T/C × 100 (%): ratio of survival time treated/control. As for the experimental part:
The animals used were BDF1 mice, all of one sex, weighing a minimum of 18 g and all within a 3 g weight range. There were 5 or 6 mice per test group. The tumor transplant was by intraperitoneal injection of 0.5 ml of dilute ascitic fluid containing 10^6 cells of lymphocytic leukemia P388. The test compounds were administered intraperitoneally on days 1, 5 and 9 (relative to tumor inocu-lation) at various doses. The animals were weighed and survivors recorded on a regular basis for 60 days. The median survival time and the ratio of survival time for treated (T)/control (C) animals were calculated.

Where [1] appears, read: dose 0.75 mg/kg intraperitoneally on days 1, 5 and 9.
Where [2] appears, read: dose 1.5 mg/kg intraperitoneally on days 1, 5 and 9.
The mark [3] stands for this setting: dose 3 mg/kg intraperitoneally on days 1, 5 and 9.

For `CC(C)(C)OC(=O)N[C@@H](CO)C(=O)NCCNc1ccc(NCCNC(=O)[C@H](CO)NC(=O)OC(C)(C)C)c2c1C(=O)c1c(O)ccc(O)c1C2=O` (relative stereo) [Example 14, [S-(R*,R*)]-N,N'-[(9,10-Dihydro-5,8-dihydroxy-9,10-dioxo-1,4-anthracenediyl)bis[imino-2,1-ethanediylimino-[1-(hydroxymethyl)-2-oxo-2,1-ethanediyl]]]bis-carbamic acid, bis(1,1-dimethylethyl)ester], the “Median Survival” value runs as follows: under setting [1], 13.5 days; under setting [2], 16.0 days; under setting [3], 17.5 days. Also, the “T/C × 100 (%)” value is 123% under setting [1], 145% under setting [2] and 159% under setting [3].
For the compound `Cl.Cl.N[C@@H](Cc1ccccc1)C(=O)NCCNc1ccc(NCCNC(=O)[C@@H](N)Cc2ccccc2)c2c1C(=O)c1c(O)ccc(O)c1C2=O` (relative stereo) [Example 17, [S-(R*,R*)]-N,N'-[(9,10-Dihydro-5,8-dihydroxy-9,10-dioxo-1,4-anthracenediyl)bis(imino-2,1-ethanediyl)]bis[2-aminobenzenepropanamide], dihydrochloride], the “Median Survival” value was 22.5 days under setting [1], 23.0 days under setting [2] and 19.5 days under setting [3]. For the same compound, the “T/C × 100 (%)” value under setting [1] was 188%, the “T/C × 100 (%)” value under setting [2] was 192% and the “T/C × 100 (%)” value under setting [3] was determined as 163%.
As for `CC[C@H](C)[C@H](N)C(=O)NCCNc1ccc(NCCNC(=O)[C@@H](N)[C@@H](C)CC)c2c1C(=O)c1c(O)ccc(O)c1C2=O.Cl.Cl` (relative stereo) [Example 21, [S-(R*,R*,R*,R*)]-N,N'-[(9,10-Dihydro-5,8-dihydroxy-9,10-dioxo-1,4-anthracenediyl)bis(imino-2,1-ethanediyl)]bis-[2-amino-3-methylpentanamide], dihydrochloride], the “Median Survival” value stood at 18.5 days under setting [1], 18.0 days under setting [2] and 22.5 days under setting [3]. The “T/C × 100 (%)” value is, setting by setting: under setting [1], 185%; under setting [2], 180%; under setting [3], 225%.
As to `CSCC[C@H](N)C(=O)NCCNc1ccc(NCCNC(=O)[C@@H](N)CCSC)c2c1C(=O)c1c(O)ccc(O)c1C2=O.Cl.Cl` (relative stereo) [Example 22, [S-(R*,R*)]N,N'(9,10-Dihydro-5,8-dihydroxy-9,10-dioxo-1,4-anthracenediyl)bis(imino-2,1-ethanediyl)]-bis[2-amino-4-(methylthio)butanamide], dihydrochloride], the “Median Survival” value by setting is: under setting [1], 17.0 days; under setting [2], 20.5 days; under setting [3], 25.5 days. Also, the “T/C × 100 (%)” value under setting [1] was 170%, the “T/C × 100 (%)” value under setting [2] was 205% and the “T/C × 100 (%)” value under setting [3] is 255%.
As to `CC(C)[C@H](N)C(=O)NCCNc1ccc(NCCNC(=O)[C@@H](N)C(C)C)c2c1C(=O)c1c(O)ccc(O)c1C2=O.Cl.Cl` (relative stereo) [Example 24, [S-(R*,R*)]-N,N'-[(9,10-Dihydro-5,8-dihydroxy-9,10-dioxo-1,4-anthracenediyl)bis(imino-2,1-ethanediyl)]bis-[2-Amino-3-methylbutanamide], dihydrochloride], the “Median Survival” value was 18.5 days under setting [1], 20.0 days under setting [2] and 20.0 days under setting [3]. Also, the “T/C × 100 (%)” value is, setting by setting: under setting [1], 185%; under setting [2], 200%; under setting [3], 200%.
In the case of `CC(C)C[C@@H](N)C(=O)N(CCO)CCNc1ccc(NCCN(CCO)C(=O)[C@H](N)CC(C)C)c2c1C(=O)c1c(O)ccc(O)c1C2=O.O=C(O)C(F)(F)F.O=C(O)C(F)(F)F.O=C(O)C(F)(F)F` (relative stereo) [Example 29, [R-(R*,R*)]-N,N'-[(9,10-Dihydro-5,8-dihydroxy-9,10-dioxo-1,4-anthracenediyl)bis(imino-2,1-ethanediyl)]bis-[2-amino-N-(2-hydroxyethyl)-4-methylpentanamide]tris(trifluoroacetate)], the “Median Survival” value runs as follows: under setting [1], 12.0 days; under setting [2], 13.0 days; under setting [3], 15.5 days. Moreover, the “T/C × 100 (%)” value reads like this: under setting [1], 109%; under setting [2], 118%; under setting [3], 141%.
On to `Br.Br.N[C@@H](CS)C(=O)NCCNc1ccc(NCCNC(=O)[C@@H](N)CS)c2c1C(=O)c1c(O)ccc(O)c1C2=O` (relative stereo) [Example 35, R-(R*,R*)]-N,N'-[(9,10-Dihydro-5,8-dihydroxy-9,10-dioxo-1,4-anthracenediyl)bis(imino-2,1-ethanediyl)]bis[2-amino-3-mercaptopropanamide], dihydrobromide], for which the “Median Survival” value is, setting by setting: under setting [1], 21.0 days; under setting [2], 23.0 days; under setting [3], 24.5 days. In addition, the “T/C × 100 (%)” value under setting [1] amounted to 210%, the “T/C × 100 (%)” value under setting [2] came to 230% and the “T/C × 100 (%)” value under setting [3] came to 245%.
As for `N[C@@H](CO)C(=O)NCCNc1ccc(NCCNC(=O)[C@@H](N)CO)c2c1C(=O)c1c(O)ccc(O)c1C2=O.O=C(O)C(F)(F)F.O=C(O)C(F)(F)F` (relative stereo) [Example 36, [S-(R*,R*)]-N,N'-(9,10-Dihydro-5,8-dihydroxy-9,10-dioxo-1,4-anthracenediyl)bis(imino-2,1-ethanediyl)]bis[2-amino-3-hydroxyropanamide]bis(trifluoroacetate)], the “Median Survival” value reads like this: under setting [1], 19.0 days; under setting [2], 19.0 days; under setting [3], 23.5 days. The “T/C × 100 (%)” value is listed as 173% under setting [1], 173% under setting [2] and 214% under setting [3].
For `Cl.Cl.N[C@@H](Cc1ccc(O)cc1)C(=O)NCCNc1ccc(NCCNC(=O)[C@@H](N)Cc2ccc(O)cc2)c2c1C(=O)c1c(O)ccc(O)c1C2=O` (relative stereo) [Example 37, [S-(R*,R*)]-N,N'-[(9,10-Dihydro-5,8-dihydroxy-9,10-dioxo-1,4anthracenediyl)bis(imino-2,1-ethanediyl)]bis-[2,-amino-3-(4-hydroxyphenyl)-propanamide, dihydrochloride], the “Median Survival” value runs as follows: under setting [1], 25.0 days; under setting [2], 23.5 days; under setting [3], 23.5 days. The “T/C × 100 (%)” value reads like this: under setting [1], 227%; under setting [2], 214%; under setting [3], 214%.
On to `CC(C)(C)OC(=O)C[C@H](NC(=O)OCC1c2ccccc2-c2ccccc21)C(=O)NCCNc1ccc(NCCNC(=O)[C@H](CC(=O)OC(C)(C)C)NC(=O)OCC2c3ccccc3-c3ccccc32)c2c1C(=O)c1c(O)ccc(O)c1C2=O` (relative stereo) [Example 38, [S-R*,R*)]-4,4'-[(9,10-Dihydro-5,8-dihydroxy-D9,10-dioxo-1,4-anthracenediyl)bis(imino-2,1-ethanediylimino)]bis[3-[[9H-fluoren-9-ylmethoxycarbonyl]amino]-4-oxobut anoic acid],bis(1,1-dimethyl)ester], for which the “Median Survival” value under setting [1] stood at 13.0 days, the “Median Survival” value under setting [2] worked out at 15.0 days and the “Median Survival” value under setting [3] was 16.0 days. The “T/C × 100 (%)” value runs as follows: under setting [1], 108%; under setting [2], 125%; under setting [3], 133%.
As for `CC(C)(C)OC(=O)C[C@H](N)C(=O)NCCNc1ccc(NCCNC(=O)[C@@H](N)CC(=O)OC(C)(C)C)c2c1C(=O)c1c(O)ccc(O)c1C2=O` (relative stereo) [Example 39, [S-(R*,R*)]-4,4'-[(9,10-Dihydro-5,8-dihydroxy-9,10-dioxo-1,4-anthracenediyl)bis(imino-2,1-ethanediylimino)]bis[3-amino-4-oxobutanoic acid]bis(1,1-dimethylethyl)ester], the “Median Survival” value reads like this: under setting [1], 21.5 days; under setting [2], 19.5 days; under setting [3], 19.0 days. Besides, the “T/C × 100 (%)” value under setting [1] worked out at 179%, the “T/C × 100 (%)” value under setting [2] was found to be 163% and the “T/C × 100 (%)” value under setting [3] is on record as 158%.
With `N[C@@H](CC(=O)O)C(=O)NCCNc1ccc(NCCNC(=O)[C@@H](N)CC(=O)O)c2c1C(=O)c1c(O)ccc(O)c1C2=O.O=C(O)C(F)(F)F.O=C(O)C(F)(F)F` (relative stereo) [Example 40, S-(R*,R*)]-4,4'-[(9,10-Dihydro-5,8-dihydroxy-9,10-dioxo-1,4-anthracenediyl)bis(imino-2,1-ethanediylimino)]bis[3amino-4-oxobutanoic acid]bis(trifluoroacetate)], the “Median Survival” value is, setting by setting: under setting [1], 23.0 days; under setting [2], 19.5 days; under setting [3], 23.0 days. Also, the “T/C × 100 (%)” value runs as follows: under setting [1], 192%; under setting [2], 163%; under setting [3], 192%.
